The values that follow come from patent publication US20250019371A1, “SMALL-MOLECULAR INHIBITORS FOR THE BETA-CATENIN/ B-CELL LYMPHOMA 9 PROTEIN-PROTEIN INTERACTION” (H. LEE MOFFITT CANCER CENTER AND RESEARCH INSTITUTE, INC., priority 2021, published 2025).

Where two headings read alike, the source gives them in different places.

One experiment has as its target T1, β-catenin/BCL9 PPI (Homo sapiens, UniProt P35222).
T1 construct: Full-length β-catenin (residues 1-781); host or cells: E. coli BL21 DE3
T1 sequence (P35222 1-781): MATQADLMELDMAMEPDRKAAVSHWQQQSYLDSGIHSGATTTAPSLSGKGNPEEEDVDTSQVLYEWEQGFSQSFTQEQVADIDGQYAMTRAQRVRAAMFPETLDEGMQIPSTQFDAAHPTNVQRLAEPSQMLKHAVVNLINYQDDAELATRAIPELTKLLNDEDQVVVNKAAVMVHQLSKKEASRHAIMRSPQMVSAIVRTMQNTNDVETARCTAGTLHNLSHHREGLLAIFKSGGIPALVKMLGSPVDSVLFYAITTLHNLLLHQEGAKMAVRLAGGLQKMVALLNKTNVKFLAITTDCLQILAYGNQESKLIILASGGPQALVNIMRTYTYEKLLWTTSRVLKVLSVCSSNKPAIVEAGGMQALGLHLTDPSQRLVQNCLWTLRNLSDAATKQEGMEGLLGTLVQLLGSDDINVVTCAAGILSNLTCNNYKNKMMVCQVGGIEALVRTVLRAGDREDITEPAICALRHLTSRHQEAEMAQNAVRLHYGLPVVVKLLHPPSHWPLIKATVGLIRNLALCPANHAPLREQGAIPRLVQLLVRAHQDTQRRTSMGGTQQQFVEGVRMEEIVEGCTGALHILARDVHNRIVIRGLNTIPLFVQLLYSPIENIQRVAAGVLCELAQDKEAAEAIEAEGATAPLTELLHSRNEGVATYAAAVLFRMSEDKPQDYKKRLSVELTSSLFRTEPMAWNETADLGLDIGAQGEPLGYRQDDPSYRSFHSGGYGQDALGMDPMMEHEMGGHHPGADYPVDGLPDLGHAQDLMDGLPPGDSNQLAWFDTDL
Description: AlphaScreen competitive inhibition assay of β-catenin/BCL9 PPI. Type of experiment: binding. The settings on record: for AlphaScreen inhibitory activity in words: SAR comparison. As to the method:
AlphaScreen Assays of β-Catenin and BCL9 Interaction. Experiments were performed in white opaque 384-well plates from PerkinElmer (Waltham, MA), and the samples were read on a Biotek Synergy 2 plate reader (Winooski, VT) with excitation at 680 nm and emission at 570 nm. The standard AlphaScreen protocol was used with a sensitivity setting of 200. All dilutions were made in 1x assay buffer containing 25 mM Hepes (pH 7.4), 100 mM NaCl, 0.01% Triton X-100 and 0.1% BSA to minimize nonspecific interactions.
For the β-catenin/BCL9 assay, 5 nM biotinylated BCL9, and 50 nM His6-tagged 8-catenin were incubated in assay buffer for 30 min. Different concentrations of the tested inhibitor were added and incubated in 20 μL assay buffer for another 1 h. All of the assay plates were covered and gently mixed on an orbital shaker. Donor and acceptor beads were then added to the plates to a final concentration of 10 μg/mL in 25 μL assay buffer. The mixture was incubated for 1 h before detection. The IC50 value was determined by nonlinear least-square analysis of GraphPad Prism 8.0. […] All of the experiments were performed in triplicate and carried out in the presence of 1% DMSO for small-molecule inhibitors. Each compound was assayed at least by three independent experiments. The results were expressed as mean±standard deviation.
For orientation: Bead proximity is the source of the signal in Alpha formats.

Experiment [1] has as its system Wnt/β-catenin signaling (TOPFlash luciferase reporter). The experiment in a line: TOPFlash luciferase reporter assay in SW480 cells. Type of experiment: cell-based. Conditions: Homo sapiens, 24 h. How it is done:
The suppressing effect of the inhibitors on transactivation of Wnt/β-catenin signaling was evaluated by the TOPFlash/FOPFlash luciferase reporter assay. In the TOPFlash assay, the luciferase reporter has three wild-type Tcf4 binding sites, while in the FOPFlash assay Tcf4 binding sites were mutated. These tandem Tcf binding sites controls the expression ratio of the firefly luciferase in TOPFlash/FOPFlash assays. The renilla luciferase reporter construct (pCMV-RL) was used as the internal control to normalize luciferase reporter signals and eliminate any possible systematic errors. […] This selectivity trend is consistent with that from MTS cell viability assays. Therefore, further cell-based studies were focused on compound 30.
Cell Transfection and Luciferase Assay. FuGENE6 (E269A, Promega) 96 well plate format was used for the transfection of SW480 cells according to the manufacturer's instruction. SW480 cells were co-transfected with 60 ng the TOPFlash or FOPFlash firefly luciferase reporter gene and 40 ng renilla luciferase pCMV-RL normalization reporter gene. Cells were cultured in DMEM and 10% FBS at 37° C. for 24 h, and different concentrations of inhibitors or DMSO was added. After 24 h, the luciferase reporter activity was measured using the Dual-Glo system (E2940, Promega). […]

The subject of the next experiment is MDA-MB-231. The experiment in a line: MTS cell viability assay, MDA-MB-231. Conditions: Homo sapiens, 72 h, Wnt/β-catenin hyperactive, mean ± SD (n = 3). Type of experiment: cell-based. As to the method: (§1) MTS Cell Growth Inhibition Experiments. Colorectal cancer cells (SW480 and HCT116) and triple negative breast cancer cells (MDA-MB-231 and MDA-MB-468) were seeded in 96-well plates at 5×10^3 cells/well in DMEM with 10% FCS, maintained overnight at 37° C., and incubated with the tested compounds at various concentrations. Human mammary epithelial cell MCF10A were seeded in 96-well plates at 1×10^4 cells/well in MEGM (CC-3150, Lonza) with 100 ng/mL cholera toxin, maintained overnight at 37° C., and incubated with the tested compounds at various concentrations. Cell viability was monitored after 72 h using a freshly prepared mixture of 1 part phenazine methosulfate (PMS, Sigma) solution (0.92 mg/mL) and 19 parts 3-(4,5-dimethylthiazol-2-yl)-5-(3-carboxymethoxyphenyl)-2-(4-sulfophenyl)-2H-tetrazolium (MTS, Promega) solution (2 mg/mL). Cells were incubated in 10 μL of this solution at 37° C. for 3 h, and A490 was measured. […] Experiments were performed in triplicate.

For another experiment, the system named is MDA-MB-468. Description: MTS cell viability assay, MDA-MB-468. Type of experiment: cell-based. Conditions: Homo sapiens, 72 h, Wnt/β-catenin hyperactive, mean ± SD (n = 3). As to the method: as §1
A further experiment concerns MCF10A. Description: MTS cell viability assay, MCF10A. Type of experiment: cell-based, human. The settings on record: for IC50: Homo sapiens, MCF-10A, 72 h, Wnt/β-catenin normal, mean ± SD (n = 3). As to the method: as §1
The test system of the next experiment is SW480. The experiment in a line: MTS cell viability assay, SW480. In kind it is cell-based. Conditions: Homo sapiens, 72 h, Wnt/β-catenin hyperactive, mean ± SD (n = 3). As to the method: as §1
(Tetrazolium assays rely on reduction of a dye to a coloured formazan, in cell work by metabolically active cells.)

In another experiment the test system is HCT116. The experiment in a line: MTS cell viability assay, HCT116. Conditions: Homo sapiens, HCT-116; 72 h, Wnt/β-catenin hyperactive, mean ± SD (n = 3). Type of experiment: cell-based. How it is done: as §1
In experiment [2] the test system is Wnt/β-catenin hyperactive cancer cells. The experiment in a line: MTS cell viability assays, cell panel. Type of experiment: cell-based. Conditions: Homo sapiens, MCF-10A; all tested cells incl. MCF10A; read-out: MTS IC50 on all tested cells. How it is done:
as §1

Broadly, the IC50 is the point on the concentration scale where inhibition reaches its midpoint. On to `COc1cccc(S(=O)(=O)NC(=O)C(C)(C)Oc2cccc(N3CCC[C@H](C(=O)N(Cc4ccc(-c5cccs5)cc4)C4CC4)C3)c2)c1` [Compound 28, (S)—N-Cyclopropyl-1-(3-((1-((3-methoxyphenyl)sulfonamido)-2-methyl-1-oxopropan-2-yl)oxy)phenyl)-N-(4-(thiophen-2-yl)benzyl) piperidine-3-carboxamide], for which the “AlphaScreen inhibitory activity in words” value on β-catenin/BCL9 PPI was “slightly superior to R-isomer”. Also, the IC50 on β-catenin/BCL9 PPI (Table 2, AlphaScreen, inhibitors 27-30 (R- and S-isomers), preliminary) is not above 5 µM; in experiment [1], 7.8 µM; in the experiment on MDA-MB-231 it was 19.8 ± 1.59 µM; in the experiment with MDA-MB-468 it was 15.4 ± 2.49 µM; in the experiment on MCF10A, 30.4 ± 2.47 µM; in the experiment on SW480 it was 28.2 ± 1.08 µM. For the same molecule, in the experiment on HCT116, 29.9 ± 1.99 µM corresponded to half-maximal inhibition (IC50). Further, the Ki at β-catenin/BCL9 PPI (Table 2, AlphaScreen, inhibitors 27-30 (R- and S-isomers), preliminary, read-out: Ki) was not above 5 µM. The “selectivity for hyperactive cancer cells over normal MCF10A cells” value with MCF10A (MTS IC50 MCF10A versus cancer cells) is reported as “much less selective over MCF10A cells”.

With `CC(C)(C)OC(=O)C(C)(C)Oc1cccc(N2CCCC(C(=O)N(Cc3ccc(-c4cccs4)cc3)C3CC3)C2)c1` (centres unmarked) [Compound 17, tert-Butyl 2-(3-(3-(cyclopropyl(4-(thiophen-2-yl)benzyl)carbamoyl)piperidin-1-yl)phenoxy)-2-methylpropanoate], the Ki is more than 90 µM on β-catenin/BCL9 PPI (AlphaScreen competitive inhibition assay, read-out: Ki for disruption of the β-catenin/BCL9 PPI) and more than 90 µM at β-catenin/BCL9 PPI (Table 1, AlphaScreen, inhibitors 16-26, Ki derived from IC50, read-out: Ki). In addition, on β-catenin/BCL9 PPI, the “AlphaScreen inhibitory activity in words” value is reported as “significant potency loss”. Also, the IC50 on β-catenin/BCL9 PPI (Table 1, AlphaScreen, inhibitors 16-26) was more than 100 µM; in experiment [2], more than 200 µM; with MDA-MB-231 it was more than 200 µM; in the experiment on MDA-MB-468 it was more than 200 µM; in the experiment with MCF10A, more than 200 µM; in the experiment on SW480, more than 200 µM. Besides, the IC50 in the experiment on HCT116 is more than 200 µM.
